# Test: HPLC determination of degradation products in particles after SEDS processing
# Type: physicochemical
# Protocol: High-Perfomance Liquid Chromatography (HPLC)
# Identification and quantification of degradation products were determined using HPLC technique.
# The amount of degradation products was calculated from the chromatograms as area-%. Thus, 0.2% area-procent means that the amount of degradation products was 0.2% of the initial weight of the substance.
# Particles were prepared in a modified SEDS equipment (Bradford Particle Design Limited, UK) from a solution, containing substance(s).
# The solution and the antisolvent were introduced into a coaxial nozzle, which was located inside a pressure vessel. Under controlled pressure and temperature conditions, the antisolvent extracts the solvent from the solution droplets. The concentration of the solute in the droplets is thereby increased, leading to rapid particle formation. The particles were collected in a vessel, while the antisolvent and the extracted solvent emerged through a back pressure regulator.
# The nozzle used was a two component nozzle, with an opening of 0.2 mm in diameter. In the two component nozzle the supercritical fluid passes through the inner passage, while the solution passes through the outer passage.
SMILES,Degradation products [a %],degradation products (HPLC) [area %]
"COc1ccc2[n-]c([S+]([O-])Cc3ncc(C)c(OC)c3C)nc2c1.COc1ccc2[n-]c([S+]([O-])Cc3ncc(C)c(OC)c3C)nc2c1.[Mg+2] (stereo not shown) [Experiment 1-1b, Omeprazole magnesium]",0.2,0.2
"COc1ccc2[n-]c([S+]([O-])Cc3ncc(C)c(OC)c3C)nc2c1.COc1ccc2[n-]c([S+]([O-])Cc3ncc(C)c(OC)c3C)nc2c1.[Mg+2] (stereo not shown) [Experiment 1-3a, Omeprazole magnesium]",0.4,0.4
"COc1ccc2[n-]c([S+]([O-])Cc3ncc(C)c(OC)c3C)nc2c1.COc1ccc2[n-]c([S+]([O-])Cc3ncc(C)c(OC)c3C)nc2c1.[Mg+2] (stereo not shown) [Experiment 1-1a, Omeprazole magnesium]",0.5,0.5
"COc1ccc2[n-]c([S+]([O-])Cc3ncc(C)c(OC)c3C)nc2c1.COc1ccc2[n-]c([S+]([O-])Cc3ncc(C)c(OC)c3C)nc2c1.[Mg+2] (stereo not shown) [Experiment 1-4b, Omeprazole magnesium]",0.1,0.1

# Second part, the compound after the results:
Degradation products [a %],degradation products (HPLC) [area %],SMILES
0.2,0.2,"COc1ccc2[n-]c([S+]([O-])Cc3ncc(C)c(OC)c3C)nc2c1.COc1ccc2[n-]c([S+]([O-])Cc3ncc(C)c(OC)c3C)nc2c1.[Mg+2] (stereo not shown) [Experiment 1-3b, Omeprazole magnesium]"
0.2,0.2,"COc1ccc2[n-]c([S+]([O-])Cc3ncc(C)c(OC)c3C)nc2c1.COc1ccc2[n-]c([S+]([O-])Cc3ncc(C)c(OC)c3C)nc2c1.[Mg+2] (stereo not shown) [Experiment 1-2b, Omeprazole magnesium]"
0.3,0.3,"COc1ccc2[n-]c([S@@+]([O-])Cc3ncc(C)c(OC)c3C)nc2c1.COc1ccc2[n-]c([S@@+]([O-])Cc3ncc(C)c(OC)c3C)nc2c1.[Mg+2] [Experiment 2-1b, (S)-omeprazole magnesium]"
2.1,2.1,"COc1ccc2[n-]c([S@@+]([O-])Cc3ncc(C)c(OC)c3C)nc2c1.COc1ccc2[n-]c([S@@+]([O-])Cc3ncc(C)c(OC)c3C)nc2c1.[Mg+2] [Experiment 2-1a, (S)-omeprazole magnesium]"
